From PMC9326216, “Treatment of Cardiovascular Dysfunction with PDE3-Inhibitors in Moderate and Severe Hypothermia—Effects on Cellular Elimination of Cyclic Adenosine Monophosphate and Cyclic Guanosine Monophosphate” (Frontiers in Physiology, 2022)

What was measured:
ABCC4 = molecular target: T1, ABCC4 (Homo sapiens, UniProt O15439); assay: biochemical; type: biochemical; details: cAMP-efflux, inside-out vesicles; for IC50: 20 µM 3H-cAMP, 60 min; for Ki: ABCC4 Ki
T1 sequence (O15439 1-1325): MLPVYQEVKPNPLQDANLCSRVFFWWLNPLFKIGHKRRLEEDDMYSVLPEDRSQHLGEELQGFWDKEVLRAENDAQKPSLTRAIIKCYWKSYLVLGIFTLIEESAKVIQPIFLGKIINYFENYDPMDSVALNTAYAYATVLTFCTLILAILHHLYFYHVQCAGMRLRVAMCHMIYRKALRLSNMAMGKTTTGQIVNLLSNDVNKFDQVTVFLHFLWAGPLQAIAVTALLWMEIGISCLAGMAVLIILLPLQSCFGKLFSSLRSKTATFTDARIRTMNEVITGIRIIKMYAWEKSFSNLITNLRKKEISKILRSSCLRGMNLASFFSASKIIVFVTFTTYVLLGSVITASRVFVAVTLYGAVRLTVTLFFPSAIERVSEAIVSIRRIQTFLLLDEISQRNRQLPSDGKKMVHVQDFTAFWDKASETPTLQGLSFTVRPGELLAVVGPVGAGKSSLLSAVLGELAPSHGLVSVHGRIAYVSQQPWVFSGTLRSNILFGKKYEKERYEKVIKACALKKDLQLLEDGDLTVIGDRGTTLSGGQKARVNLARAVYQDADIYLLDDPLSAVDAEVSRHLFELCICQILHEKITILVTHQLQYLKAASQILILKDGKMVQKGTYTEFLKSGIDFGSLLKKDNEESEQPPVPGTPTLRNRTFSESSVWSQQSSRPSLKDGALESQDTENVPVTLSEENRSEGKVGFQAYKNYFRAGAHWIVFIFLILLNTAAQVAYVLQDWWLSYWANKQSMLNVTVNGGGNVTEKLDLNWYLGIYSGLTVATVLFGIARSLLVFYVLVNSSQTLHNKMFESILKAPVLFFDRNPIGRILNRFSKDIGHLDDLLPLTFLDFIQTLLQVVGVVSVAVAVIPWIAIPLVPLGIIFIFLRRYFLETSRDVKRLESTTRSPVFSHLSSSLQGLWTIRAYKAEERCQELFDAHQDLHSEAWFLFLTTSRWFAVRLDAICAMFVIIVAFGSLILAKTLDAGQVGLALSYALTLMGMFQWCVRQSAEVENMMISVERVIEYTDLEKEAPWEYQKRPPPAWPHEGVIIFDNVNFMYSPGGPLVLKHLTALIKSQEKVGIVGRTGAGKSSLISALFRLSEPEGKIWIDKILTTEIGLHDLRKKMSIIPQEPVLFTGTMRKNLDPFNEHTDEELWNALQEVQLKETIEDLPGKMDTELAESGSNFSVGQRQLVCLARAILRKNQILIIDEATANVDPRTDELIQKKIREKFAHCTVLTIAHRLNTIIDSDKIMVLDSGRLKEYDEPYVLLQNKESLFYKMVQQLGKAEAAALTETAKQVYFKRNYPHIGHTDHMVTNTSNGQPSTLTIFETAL
Protocol: Freshly collected EDTA blood from healthy donors (n = 35) was prepared at 0°C–4°C, starting by separating the erythrocytes from plasma by centrifugation at 2,300 g for approximately 15 min. […] Lysis followed thereafter, with ten volumes of 5 mM Tris-HCl, 0.5 mM EGTA, 4 mM KCl (pH 8.1) and washed by repeated centrifugation at 20,000 g for 20 min and resuspension in the same buffer. Vesiculation was initiated by adding 39 volumes of a […] buffer ([…] Tris-HCl, pH 8.2) to one volume of cell suspension and completed by forcing the solution five times through a 27-gauge syringe needle to promote homogenization of the membranes. […] The resulting IOVs, which still contained ABC-transporters in the membrane, enabled us to control the intracellular environment, in this case the surrounding medium, and collect the cyclic nucleotides within. […] Radioactive labeled (^3H)-cAMP or (^3H)-cGMP (Perkin Elmer, Boston, MA, United States) were added to the incubation solutions in the concentration 20 and 2 μM, respectively, depending on the transporter examined, together with the appointed study drug in concentrations up to 1 mM. […] Next step was to collect the IOVs, which was done by filtration through a nitrocellulose membrane (Bio-Rad Laboratories, Feldkirchen, Germany), and then drying it. The resulting collection of radioactivity upon the filter, was later quantified by using a Packard TopCount NXT (Packard, Downers Grove, IL, United states) after adding scintillation fluid (MicroScint-O, PerkinElmer, Groningen, Netherlands).
IC50 and Ki values were calculated for each of the drugs, both for their ability to inhibit cAMP- and cGMP- efflux, as well as PDE3 and PDE5 activity. […] Inhibition curves were created accordingly, both with and without adjustment for normothermic control.

erythrocytes = assay: Intracellular access of the drugs in erythrocytes (LC-MS); type: in vitro ADME, human; details: 30 min incubation, milrinone 10 µM, amrinone 100 µM, levosimendan 1 µM
Protocol: Fresh (<24 h) EDTA blood from healthy donors (n = 18) was obtained and washed with Krebs-Ringer-Phosphate-Buffer containing glucose (KRPB/G, pH 7.4) and centrifuged (10 min, 1,000 g) three consecutive times. Plasma and buffy coat were removed. KRPB/G was added to the cell solution to bring it to the ratio 1:2.5. Hematocrit (Hct) was measured and adjusted with additional buffer to reach 0.44, in order to give the final Hct of 0.40 in the incubation solution. […] The reaction was stopped by placing the test tubes on ice and adding 4 ml of ice cold KRFB/G. The samples were subsequently centrifugated (5 min, 600 g), then washed with KRFB/G once more and centrifugation was repeated twice. 50 µl of the remaining red blood cell suspension was transferred to Eppendorf tubes. 50 µl 500 nM IS-Milrinone-d3 was added as an internal standard (TLC Pharmaceutical Standards Ltd.). 200 µl ZnSO4 was added to each test sample, to induce lysis of the cells, and mixed in a vortex mixer. 30 µl of the samples were used for measurement of protein concentration, the rest was mixed with 500 µl acetonitrile and centrifugated (2 min, 13400 g). Finally, 100 µl of the solution was collected for analysis using mass spectrometry (MS).
Liquid chromatography tandem mass spectrometry (LC-MS) was used to assess concentrations of the inhibitors for experiments performed to determine intracellular access of these drugs, as well as to quantify levels of cAMP/AMP and cGMP/GMP for the PDE3-and PDE5-inhibition plots. Internal standards were used, as described previously. There was a linearity from 0.2 nM to at least 2000 nM (r^2 > 0.998) for cAMP, AMP, and cGMP. For GMP, linearity was present from 2 nM to at least 2000 nM (r^2 > 0.998). Concerning PDE3-inhibitors, the linearity was found at 10 nM to at least 5,000 nM (r^2 > 0.99). Lower limit of quantification (LLOQ) was 0.2 for cAMP, cGMP, and AMP, 2 nM for GMP and 10 nM for PDE3-inhibitors (2 µl injection volume).
Intracellular concentrations of drugs were adjusted for protein concentrations in each sample. The total incubation concentrations were also adjusted for protein concentrations to evaluate the degree of access in percentage. Statistical analysis was performed using one-way ANOVA with Holm-Sidak multiple comparisons post hoc test at each temperature. ANOVA on ranks with Dunn post hoc test was used when the results were not normally distributed. The results are presented as means ± standard error of mean (SEM). p-values < 0.05 were considered significant results. Degrees of freedom (dF) is given as between group values. SigmaPlot 14.0 (Systat Software, San Jose, CA, United States) was used for all analysis, as well as creating the graphs.

Structure (SMILES): Cc1[nH]c(=O)c(C#N)cc1-c1ccncc1 [Milrinone]
- IC50 (ABCC4; ABCC4 IC50, 28°C): 37.4 ± 24.5 µM
- IC50 (ABCC4; ABCC4 IC50, 32°C): 32.9 ± 14.6 µM
- IC50 (ABCC4; ABCC4 IC50, 34°C): 67 ± 22.6 µM
- IC50 (ABCC4; ABCC4 IC50, 37°C): 58.9 ± 13.1 µM
- Ki (ABCC4; 28°C): 22.7 ± 14.9 µM
- Ki (ABCC4; 32°C): 20 ± 8.86 µM
- Ki (ABCC4; 34°C): 40.6 ± 13.7 µM
- Ki (ABCC4; 37°C): 35.7 ± 7.94 µM
- Intracellular access, % of drug concentration per gram protein in the incubation solution (erythrocytes; 28°C): 15.06 ± 0.544%
- Intracellular access, % of drug concentration per gram protein in the incubation solution (erythrocytes; 34°C): 11.41 ± 1.675%
